22 molecules from patent US20070208052A1, “Aryloxy and arylalkyleneoxy substituted thiazoloquinolines and thiazolonaphthyridines” (priority 2004, published 2007) can be followed below.

In general, melting point refers to the temperature, or range, at which the solid turns liquid.

Structures are written as SMILES.

`CCCc1nc2c(N)nc3cc(OCc4cccnc4)ccc3c2s1` [Example 32, 2-Propyl-7-[(pyridin-3-yl)methoxy]thiazolo[4,5-c]quinolin-4-amine] had a melting point of 167 to 169 °C.

For `CCCc1nc2c(N)nc3cc(OCc4c(C)noc4C)ccc3c2s1` [Example 35, 7-[(3,5-Dimethylisoxazol-4-yl)methoxy]-2-propylthiazolo[4,5-c]quinolin-4-amine], the melting point was 178 to 180 °C. `CCc1nc2c(N)nc3cc(OCc4ccccc4)ccc3c2s1` [Example 29, 7-Benzyloxy-2-ethylthiazolo[4,5-c]quinolin-4-amine] registered a melting point of 208 to 209 °C.

`CCc1nc2c(N)nc3cc(OCc4ccc(C(F)(F)F)o4)ccc3c2s1` [Example 36, 2-Ethyl-7-{[5-(trifluoromethyl)furan-2-yl]methoxy} thiazolo[4,5-c]quinolin-4-amine]: the melting point was 152 to 154 °C. The value for `CCCc1nc2c(N)nc3cc(OCCn4cccc4)ccc3c2s1` [Example 33, 2-Propyl-7-[2-(pyrrol-1-yl)ethoxy]thiazolo[4,5-c]quinolin-4-amine] was 158 to 160 °C; that for `CCc1nc2c(N)nc3cc(OCCc4c(C)n[nH]c4C)ccc3c2s1` [Example 39, 7-[2-(3,5-Dimethyl-1H-pyrazol-4-yl)ethoxy]-2-ethylthiazolo[4,5-c]quinolin-4-amine] was 195 to 197 °C. The value for `CCc1nc2c(N)nc3cc(OCc4cccc(CO)n4)ccc3c2s1` [Example 43] was 186 to 187 °C; that for `CCc1nc2c(N)nc3cc(OCCc4c[nH]c5ccccc45)ccc3c2s1` [Example 45, 2-ethyl-7-[2-(1H-indol-3-yl)ethoxy]thiazolo[4,5-c]quinolin-4-amine] was 218 to 220 °C; that for `CCCc1nc2c(N)nc3cc(OCc4ccccc4)ccc3c2s1` [Example 1, 7-Benzyloxy-2-propylthiazolo[4,5-c]quinolin-4-amine] was 175 to 178 °C. As for `CCCc1nc2c(N)nc3cc(OCc4ccoc4)ccc3c2s1` [Example 5, 7-(Furan-3-ylmethyloxy)-2-propylthiazolo[4,5-c]quinolin-4-amine], the figure is 170 to 171 °C; as for `CCc1nc2c(N)nc3cc(OCc4nc5ccccc5s4)ccc3c2s1` [Example 41, 7-[(1,3-Benzothiazol-2-yl)methoxy]-2-ethylthiazolo[4,5-c]quinolin-4-amine], 211 to 212 °C; as for `CCc1nc2c(N)nc3cc(OCCCc4cccnc4)ccc3c2s1` [Example 30, 2-Ethyl-7-[3-(pyridin-3-yl)propoxy]thiazolo[4,5-c]quinolin-4-amine], 172 to 173 °C.

`CCc1nc2c(N)nc3cc(OCc4ccc(S(=O)(=O)NCCc5cc6ccccc6[nH]5)cc4)ccc3c2s1` [Example 37, 4-{[(4-Amino-2-ethylthiazolo[4,5-c]quinolin-7-yl)oxy]methyl}-N-[2-(1H-indol-2-yl)ethyl]benzenesulfonamide]: the melting point was in the range of 100 to 101 °C. For the molecule `CCCc1nc2c(N)nc3cc(OCCCn4cccc4)ccc3c2s1` [Example 34, 2-Propyl-7-[3-(pyrrol-1-yl)propoxy]thiazolo[4,5-c]quinolin-4-amine], the melting point was in the range of 152 to 154 °C. The molecule `CCc1nc2c(N)nc3cc(OCc4ccc(C(=O)OC)o4)ccc3c2s1` [Example 42, Methyl 5-{[(4-amino-2-ethylthiazolo[4,5-c]quinolin-7-yl)oxy]methyl}-2-furoate] displayed a melting point of 184 to 186 °C.

For `CCCc1nc2c(N)nc3cc(OCc4cscn4)ccc3c2s1` [Example 31, 2-Propyl-7-[(thiazol-4-yl)methoxy]thiazolo[4,5-c]quinolin-4-amine], the melting point was 218 to 220 °C.

Regarding `CCCc1nc2c(N)nc3cc(OCCOCc4ccccc4)ccc3c2s1` [Example 4, 7-[2-(Benzyloxy)ethoxy]-2-propylthiazolo[4,5-c]quinolin-4-amine], the melting point lay in the range of 142 to 145 °C. For `CCc1nc2c(N)nc3cc(Oc4ccc(C(=O)OC)cn4)ccc3c2s1` [Example 44, Methyl 6-[(4-amino-2-ethylthiazolo[4,5-c]quinolin-7-yl)oxy]nicotinate], the melting point was 213 to 214 °C. In the case of `CCc1nc2c(N)nc3cc(OCCCn4cc(CO)nn4)ccc3c2s1` [Example 40, (1-{[3-(4-Amino-2-ethylthiazolo[4,5-c]quinolin-7-yl)oxy]propyl}-1H-[1,2,3]triazol-4-yl)methanol], the melting point lay within 194 to 197 °C. `CCCc1nc2c(N)nc3cc(OCCc4ccc(F)cc4)ccc3c2s1` [Example 3, 7-[2-(4-Fluorophenyl)ethoxy]-2-propylthiazolo[4,5-c]quinolin-4-amine]: the melting point was in the range of 145 to 148 °C.

Molecule `CCc1nc2c(N)nc3cc(OCc4cccc(Cl)n4)ccc3c2s1` [Example 38, 7-[(6-Chloropyridin-2-yl)methoxy]-2-ethylthiazolo[4,5-c]quinolin-4-amine] showed a melting point of 229 to 230 °C. The value for `CCCc1nc2c(N)nc3cc(OCc4ccc(F)cc4)ccc3c2s1` [Example 2, 7-(4-Fluorobenzyloxy)-2-propylthiazolo[4,5-c]quinolin-4-amine] was 189 to 192 °C.
